In patent publication US20250367419A1, “DRUG DELIVERY SYSTEM COMPRISING AN AGENT EFFECTIVE IN THE TREATMENT OR PREVENTION OF AN ESOPHAGEAL DISEASE FOR THE APPLICATION TO ESOPHAGEAL MUCOUS MEMBRANES” (EsoCap AG, priority 2022, published 2025):
“Also recorded” adds a separate entry of the source. r = 2'-OH (RNA)

Legend:
Assay type in all cases: physicochemical
[1] = Stability of antisense BMP2 RNA on the film under various application and storage conditions, 20% denaturing polyacrylamide gel; details: for RNA degradation after storage of the dry film: 10 days of storage of the dry film at 4° C.
Procedure: A film containing the antisense RNA for BMP2 was prepared as described in Example 2 except for using PVA 4-88 instead of PVA 18-88.
The stability of the antisense BMP2 RNA was analyzed under various application conditions as indicated in FIG. 16 and the legend of FIG. 16. 10 pmol of each probe was loaded on a 20% denaturing polyacrylamide gel. The gel was run for 3 hours at 140 volt and subsequently colored with SYBR gold for 20 minutes.
The stability of labeled antisense BMP2 RNA was analyzed in comparison to unlabeled antisense BMP2 RNA under various application conditions as indicated in FIG. 17 and the legend of FIG. 17. In lanes 1 to […], 5 pmol of the probe, in lanes 4 to 6, 10 pmol of each probe were loaded on a 20% denaturing polyacrylamide gel. The gel was run for 3 hours at 140 volt and subsequently colored with ethidium bromide for 30 minutes (FIG. 17a) or excited with light of a wavelength of 630 nm and emission was measured at 675 nm (FIG. 17b). The bands of labeled BMP2 RNA in FIG. 17b correspond to the band of the unlabeled BMP2 RNA in FIG. 17a Since the unlabeled BMP2 RNA has no fluorescent marker, the bands of unlabeled BMP2 RNA are not visible in FIG. 17b.
The stability of labeled antisense BMP2 RNA was analyzed in comparison to unlabeled antisense BMP2 RNA after storage of the dry film for 10 days at 4° C. Probes were loaded on a 20% denaturing polyacrylamide gel. The gel was run for 3 hours at 140 volt and subsequently colored with ethidium bromide for 30 minutes (FIG. 18b) or excited with light of a wavelength of 630 nm and emission was measured at 675 nm (FIG. 18a). The bands of labeled BMP2 RNA in FIG. 18a correspond to the band of the unlabeled BMP2 RNA in FIG. 18b.

[2] = HPLC analysis of paclitaxel content of the coated polymer film; details: API-loaded film sample compared with calibration sample
Procedure: • 1. Preparation polymer mixture • 2. Preparation of film laminates • 3. Slitting of the moist laminates • 4. Coating of the moist laminates • 5. Drying at room temperature
Further, the film was analyzed for the content of paclitaxel. To this end, 5 circular samples with a size of 1 cm^2 were cut at random positions of the film and dissolved in Brij® L23-buffer/methanol (MeOH) for HPLC analysis with Hypersil ODS 150×4.6 mm as stationary phase and acetonitrile/phosphate buffer as mobile phase. The HPLC results are shown in FIG. 11 in comparison to a blank film sample and a calibration sample.

[3] = Stability of RNA on the polymer film, 20% denaturing polyacrylamide gel
Procedure: • 1. preparation “base polymer mixture” • 2. sterilization • 3. preparation of film laminates • 4. drying • 5. cutting (A=0.25 cm^2) • 6. application of RNA samples on the polymer film • 7. drying of the final samples • !points 3-7 under aseptic conditions!
Stability of RNA on the film was analyzed using a 20% denaturizing polyacrylamide (PAA) gel. The experiment was repeated with a commercially available siRNA.
Stability of RNA on the film was further analyzed before and after solubilization of the film.

5′-AUU UCG AGU UGG CUG UUG C-3′ (antisense AUUUCGAGUUGGCUGUUGC; RNA, 3' rUrU, backbone not given here) [BMP2 RNA, antisense strand of BMP2-siRNA 2]
RNA degradation after storage of the dry film [1]: no RNA degradation could be observed | stability of RNA after application to the film ([1]; PVA 4-88 film, various application conditions, compared with stock sample): no difference between the test sample and the stock sample; also recorded: not degraded by the film

CC(=O)O[C@H]1C(=O)[C@@]2(C)[C@H]([C@H](OC(=O)c3ccccc3)[C@]3(O)C[C@H](OC(=O)[C@H](O)[C@@H](NC(=O)c4ccccc4)c4ccccc4)C(C)=C1C3(C)C)[C@]1(OC(C)=O)CO[C@@H]1C[C@@H]2O [paclitaxel, (2α,4α,5β,7β,10β,13α)-4,10-Bis(acetyloxy)-13-{[(2R,3S)-3-(benzoylamino)-2-hydroxy-3-phenylpropanoyl]oxy}-1,7-dihydroxy-9-oxo-5,20-epoxytax-11-en-2-yl-benzoat]
stability of paclitaxel prepared in a film [2]: can be stably prepared in a film

5′ UGCGCAGAAUGAGAUGAGUUG 3′ (UGCGCAGAAUGAGAUGAGUUG; listed as RNA, chemistry not given here)
influence of the film on RNA stability ([3]; RNA applied on PVA 18-88 film, 20% denaturing PAA gel): no influence on the stability | storage stability of RNA on the dry film ([3]; dried samples on the film, 4 days at 4° C.): no influence on RNA stability

labeled BMP2 RNA: SEQ ID NO:23 antisense BMP2 RNA labeled with the dye Atto633 attached to the 3′ end (antisense AUUUCGAGUUGGCUGUUGC; listed as RNA, chemistry not fully specified)
RNA degradation after storage of the dry film [1]: no RNA degradation could be observed
